Measurements: patent publication EP1021444B1, “3-CARBOXAMIDE DERIVATIVES OF 5H-PYRROLO[2,1-c][1,4]-BENZODIAZEPINES” (Wyeth, priority 1996, dated 1998)
Counter-ions that a name gives are not always drawn. Like-named read-outs stand apart in the source and are kept apart here.

Columns and labels:
[1] = test system: Endogenous Arginine Vasopressin Antidiuretic (V2) Response; test: Antagonism of endogenous arginine vasopressin antidiuretic (V2) response in conscious rats (urine volume); assay type: in vivo, Sprague-Dawley rats; details: 10 mg/kg rat p.o.; urine collected for four hours after dosing; no water or food during test
Description: Effects on the Antagonism of Endogenous Arginine Vasopressin Antidiuretic (V2) Response in Conscious Rats with Free Access to Water Drinking Before but not During the Experiment:
Male or female normotensive Sprague-Dawley rats (Charles River Laboratories, Inc., Kingston, NY) of 400-450 g body weight were supplied with Laboratory Rodent Feed #5001 (PMI Feeds, Inc., Richmond, IN) and water ad libitum. On the day of test, rats were placed individually into metabolic cages equipped with stainless steel screens (to separate the feces from the urine) and funnels for collection of urine. Vehicle or reference agent was given at various oral doses. During the test, rats were not provided with water or food. Urine was collected for four hours after dosing of the test compound. At the end of four hours, urine volume was measured. Urinary osmolality was determined using a Fiske One-Ten Osmometer (Fiske Associates, Norwood, MA, 02062). or an Advanced CRYOMATIC Osmometer, Model 3C2 (Advanced Instruments, Norwood, MA). Determinations of Na^+, K^+ and Cl^- ion were carried out using ion specific electrodes in a Beckman SYNCHRON EL-ISE Electrolyte System analyzer. In the following results, increased urine volume and decreased osmolality relative to AVP-control indicates activity.

[2] = target: T1, Human V2 Vasopressin Receptor (Homo sapiens, UniProt P30518); test: Binding to membranes of mouse fibroblast cell line (LV-2) transfected with the cDNA expressing the human V2 vasopressin receptor
T1 construct: expressed in transfected cells; host or cells: mouse fibroblast cell line LV-2 (membrane preparation)
T1 sequence (P30518 whole entry): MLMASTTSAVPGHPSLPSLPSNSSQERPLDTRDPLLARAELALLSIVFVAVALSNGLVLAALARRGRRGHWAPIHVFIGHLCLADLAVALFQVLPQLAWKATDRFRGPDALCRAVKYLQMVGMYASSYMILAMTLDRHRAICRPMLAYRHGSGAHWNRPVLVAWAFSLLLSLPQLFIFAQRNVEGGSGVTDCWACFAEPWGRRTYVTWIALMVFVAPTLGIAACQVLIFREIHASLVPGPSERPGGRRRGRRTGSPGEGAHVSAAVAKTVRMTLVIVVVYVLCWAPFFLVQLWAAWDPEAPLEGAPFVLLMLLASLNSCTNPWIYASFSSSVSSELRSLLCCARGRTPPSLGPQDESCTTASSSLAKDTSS
Procedure: Binding to Membranes of Mouse Fibroblast Cell Line (LV-2) Transfected with the cDNA Expressing the Human V2 Vasopressin Receptor
Flasks of 175 ml capacity, containing attached cells grown to confluence, are cleared of culture medium by aspiration. The flasks containing the attached cells are rinsed with 2x5 ml of phosphate buffered saline (PBS) and the liquid aspirated off each time. Finally, 5 ml of an enzyme free dissociation Hank's based solution (Specialty Media, Inc., Lafayette, NJ) is added and the flasks are left undisturbed for 2 min. The content of all flasks is poured into a centrifuge tube and the cells pelleted at 300 x g for 15 min. […] The homogenate is centrifuged at 1500 x g for 10 min to remove ghost membranes. The supernatant fluid is centrifuged at 100,000 x g for 60 min to pellet the receptor protein. Upon completion, the pellet is resuspended in a small volume of 50.0 mM Tris.HCl buffer, pH 7.4. The protein content is determined by the Lowry method and the receptor membranes are suspended in 50.0 mM Tris.HCl buffer containing 0.1 mM phenylmethylsulfonylfluoride (PMSF) and 0.2% bovine serum albumin (BSA) to give 2.5 mg receptor protein per ml of suspension.
For binding experiments, the following is added in ml volume to wells of a 96 well format of a microtiter plate: 100.0 ml of 100.0 mM Tris.HCl buffer containing 0.2% heat inactivated BSA, 10.0 mM MgCl2 and a mixture of protease inhibitors: leupeptin, 1.0 mg %; aprotinin, 1.0 mg %; 1,10-phenanthroline, 2.0 mg %; trypsin inhibitor, 10.0 mg % and 0.1 mM PMSF, 20.0 ml of [^3H] Arginine^8, vasopressin (S.A. 75.0 Ci/mmole) at 0.8 nM and the reaction initiated by the addition of 80.0 ml of tissue membranes (200.0 mg tissue protein). The plates are left undisturbed on the bench top for 120 min to reach equilibrium. Non specific binding is assessed in the presence of 1.0 mM of unlabeled ligand, added in 20 ml volume. For test compounds, these are solubilized in 50% dimethylsulfoxide (DMSO) and added in 20.0 ml volume to a final incubation volume of […]. Upon completion of binding, the content of each well is filtered off, using a Brandel® cell Harvester (Gaithersburg, MD). The radioactivity trapped on the filter disk by the ligand-receptor complex is assessed by liquid scintillation counting in a Packard LS Counter, with an efficiency of 65% for tritium. The data are analyzed for IC50 values by the LUNDON-2 program for competition (LUNDON SOFTWARE, OH).

[3] = read-out: Vasopressin Human V2 Receptor Binding

Row | SMILES | Urine Volume (ml/4 hrs) [1] [ml/4 hrs] | IC50 [2] [nM] | IC50 [2, 3] [nM]
1 | COc1cc(NC(=O)c2ccccc2-c2ccccc2)ccc1C(=O)N1Cc2ccc(C(=O)N3CCN(C)CC3)n2Cc2ccccc21 [Example 16] | 24.3 |  | 
2 | CN(C)NC(=O)c1ccc2n1Cc1ccccc1N(C(=O)c1ccc(NC(=O)c3ccccc3-c3ccccc3)cc1Cl)C2 [Example 8] | 40.9 | 8.6 | 
3 | Cc1ccc(F)cc1C(=O)Nc1ccc(C(=O)N2Cc3ccc(C(=O)[O-])n3Cc3ccccc32)c(Cl)c1.[K+] [Example 2, 10-[2-Chloro-4-(5-fluoro-2-methyl-benzoylamino)-benzoyl]-10,11-dihydro-5H-pyrrolo[2,1-c][1,4]benzodiazepine-3-carboxylic acid, potassium salt (1:1)] | 11.5 |  | 
4 | CN(C)C1CCN(C(=O)c2ccc3n2Cc2ccccc2N(C(=O)c2ccc(NC(=O)c4ccccc4-c4ccccc4)cc2Cl)C3)CC1 [Example 12, Biphenyl-2-carboxylic acid{3-chloro-4-[3-(4-dimethylamino-piperidine-1-carbonyl)-5H,11H-pyrrolo[2,1-c][1,4]benzodiazepine-10-carbonyl]-phenyl}-amide.] | 21.4 |  | 
5 | Cc1ccc(F)cc1C(=O)Nc1ccc(C(=O)N2Cc3ccc(C(=O)N[N+](C)(C)C)n3Cc3ccccc32)c(Cl)c1 [Example 4, 2-[[10-[2-Chloro-4-[(5-fluoro-2-methylbenzoyl)amino]benzoyl]-10,11-dihdro-5H-pyrrolo{2,1-c][1,4]benzodiazepin-3-yl]carbonyl]-1,1,1-trimethylhydrazinium iodide] | 9.2 | 60 | 
6 | O=C(Nc1ccc(C(=O)N2Cc3ccc(C(=O)N4CCC(N5CCCCC5)CC4)n3Cc3ccccc32)c(Cl)c1)c1ccccc1-c1ccccc1 [Example 11, Biphenyl-2-carboxylic acid{3-chloro-4-[3-(4-piperidinyl-piperidine-1-carbonyl)-5H,11H-pyrrolo[2,1-c][1,4]benzodiazepine-10-carbonyl]-phenyl}-amide.] |  | 9.3 | 
7 | Cc1ccc(F)cc1C(=O)Nc1ccc(C(=O)N2Cc3ccc(C(=O)O)n3Cc3ccccc32)c(Cl)c1 [Example 1, 10-[2-Chloro-4-(5-fluoro-2-methyl-benzoylamino)-benzoyl]-10,11-dihydro-5H-pyrrolo[2,1-c][1,4]benzodiazepine-3-carboxylic acid] | 13.2 |  | 14
8 | O=C(Nc1ccc(C(=O)N2Cc3ccc(C(=O)C(Cl)(Cl)Cl)n3Cc3ccccc32)c(Cl)c1)c1ccccc1-c1ccccc1 [Example 6] |  | 5.6 | 
9 | Cc1ccc(F)cc1C(=O)Nc1ccc(C(=O)N2Cc3ccc(C(=O)[N-][N+](C)(C)C)n3Cc3ccccc32)c(Cl)c1 [Example 5, 2-[[10-[2-Chloro-4-[(5-fluoro-2-methylbenzoyl)amino]benzoyl]-10,11-dihydro-5H-pyrrolo[2,1-c][1,4]benzodiazepin-3-yl]hydroxymethylene]-1,1,1-trimethylhydrazinium inner salt] | 9.1 | 60 | 
10 | O=C(O)CNC(=O)c1ccc2n1Cc1ccccc1N(C(=O)c1ccc(NC(=O)c3ccccc3-c3ccccc3)cc1Cl)C2 [Example 18, 10-{4-[(Biphenyl-2-carbonyl)-amino]-2-chloro-benzoyl}-10,11-dihydro-5H-pyrrolo[2,1-c][1,4]benzodiazepine-3-carboxylic acid (glycyl)-amide] | 7.8 | 7.6 | 
11 | O=C(Nc1ccc(C(=O)N2Cc3ccc(C(=O)N4CCC(N5CCOCC5)CC4)n3Cc3ccccc32)c(Cl)c1)c1ccccc1-c1ccccc1 [Example 15, Biphenyl-2-carboxylic acid{3-chloro-4-[3-(4-morpholino-piperidine-1-carbonyl)-5H,11H-pyrrolo[2,1-c][1,4]benzodiazepine-10-carbonyl]-phenyl}-amide.] |  | 10.7 | 
12 | Cc1ccc(F)cc1C(=O)Nc1ccc(C(=O)N2Cc3ccc(C(=O)NN(C)C)n3Cc3ccccc32)c(Cl)c1 [Example 3, N-{3-Chloro-4-[3-(N', N'-dimethyl-hydrazinocarbonyl)-5H,11H-pyrrolo[2,1-c][1,4]benzodiazepine-10-carbonyl]-phenyl}-5-fluoro-2-methyl-benzamide] | 22 |  | 15
13 | CN(C)CCNC(=O)c1ccc2n1Cc1ccccc1N(C(=O)c1ccc(NC(=O)c3ccccc3-c3ccccc3)cc1Cl)C2 [Example 14, 10-{4-[(Biphenyl-2-carbonyl)-amino]-2-chloro-benzoyl}-10,11-dihydro-5H-pyrrolo[2,1-c][1,4]benzodiazepine-3-carboxylic acid (2-dimethylamino-ethyl) -amide] | 11.3 |  | 
14 | CN1CCN(NC(=O)c2ccc3n2Cc2ccccc2N(C(=O)c2ccc(NC(=O)c4ccccc4-c4ccccc4)cc2Cl)C3)CC1 [Example 13, Biphenyl-2-carboxylic acid{3-chloro-4-[3-(4-methyl-piperazine-1 aminocarbonyl)-5H,11H-pyrrolo[2,1-c][1,4]benzodiazepine-10-carbonyl]-phenyl}-amide.] | 16.8 |  | 
15 | COc1cc(NC(=O)c2ccccc2-c2ccccc2)ccc1C(=O)N1Cc2ccc(C(=O)NN(C)C)n2Cc2ccccc21 [Example 17] | 9.4 |  | 
16 | CN(C)CCN(C)C(=O)c1ccc2n1Cc1ccccc1N(C(=O)c1ccc(NC(=O)c3ccccc3-c3ccccc3)cc1Cl)C2 [Example 10, 10-{4-[(Biphenyl-2-carbonyl)-amino]-2-chloro-benzoyl}-10,11-dihydro-5H-pyrrolo[2,1-c][1,4]benzodiazepine-3-carboxylic acid (2-dimethylamino-ethyl)-methyl-amide] | 22.2 |  | 5.5
17 | O=C(Nc1ccc(C(=O)N2Cc3ccc(C(=O)O)n3Cc3ccccc32)c(Cl)c1)c1ccccc1-c1ccccc1 [Example 7, 10-{4-[(Bipheny-2-carbonyl)-amino]-2-chloro-benzoyl)-10,11-dihydro-5H-benzo[e]pyrrolo[1,2-a][1,4] diazepine-3-carboxylic acid] | 19.2 |  | 
